Data taken from patent publication EP2289528A1, “Novel nutraceutical compositions containing black pepper or its constituents improving mental performance” (DSM IP Assets B.V., priority 2009, dated 2011).
Read-outs that look alike come from different tables or passages of the source.

Columns and labels:
[1] = system: pCREB; assay: Hippocampal slice cultures, immunohistochemistry of synaptic marker pCREB; format: cell-based, Wistar rats; conditions: relative activation vs sister cultures treated with buffer; 15 min treatment after 48 h in culture; also: key: ++++ shows a qualitative maximal activation; -- shows a reduced activation; ++ signifies a half-maximum activation; ± demonstrated no change in immunoreactivity
Description: (§1) Seven-day-old Wistar rats were decapitated using a guillotine. […] Transversal hippocampal slices (400 µm) were prepared using a vibrating blade microtome (VT1200S; Leica Microsystems (Schweiz) AG, Heerbrugg, Switzerland) in the same buffer. Hippocampal slices were individually placed on a membrane insert (Millicell Culture Plate Inserts, 0.4 µm) and cultivated at 35 °C, 5% CO2, 95% humidity in a medium containing a 1:1 mixture of BME and MEM (both from Invitrogen) containing 25% heat-inactivated horse serum, 1x GlutaMAX, 1x Penicillin/Streptomycin, 0.6% glucose and 1mM Kynurenic acid (Stoppini, Buchs and Muller (1991), J. Neurosci. Methods, 37(2), 173-82). After 48 h in culture, synaptic NMDA receptors were activated by addition of black pepper extract or its constituents for 15 min in 140 mM NaCl, 5 mM KCl, 1.3 mM CaCl2, 25 mM HEPES (pH 7.3), 33 mM D-glucose and 0.02 mM bicuculline methiodide. […] After the treatments, sections were washed and fixed for immunohistochemistry. Markers of enhanced synaptic activity, normally associated with long-term potentiation, representing an ex vivo model of learning and memory were quantitated (see Table 2, below). Table 2. […] The activation of any of these markers (or a combination thereof) is observed in classical LTP experiments. TABLE 2 […]

[2] = system: pMAPK; assay: Hippocampal slice cultures, immunohistochemistry of synaptic marker pMAPK; format: cell-based, Wistar rats; conditions: relative activation vs sister cultures treated with buffer; 15 min treatment after 48 h in culture; also: key: ++++ shows a qualitative maximal activation; -- shows a reduced activation; ++ signifies a half-maximum activation; ± demonstrated no change in immunoreactivity
Description: as §1

[3] = target: T1, human glycine transporter 1b cDNA (GlyT1) (Homo sapiens, UniProt P48067); assay: Inhibition of glycine transporter 1 in a cellular assay ([3H] glycine uptake into CHO cells); format: cell-based
T1 construct: expressed in transfected cells
T1 sequence (P48067 1-652 isoform P48067-3): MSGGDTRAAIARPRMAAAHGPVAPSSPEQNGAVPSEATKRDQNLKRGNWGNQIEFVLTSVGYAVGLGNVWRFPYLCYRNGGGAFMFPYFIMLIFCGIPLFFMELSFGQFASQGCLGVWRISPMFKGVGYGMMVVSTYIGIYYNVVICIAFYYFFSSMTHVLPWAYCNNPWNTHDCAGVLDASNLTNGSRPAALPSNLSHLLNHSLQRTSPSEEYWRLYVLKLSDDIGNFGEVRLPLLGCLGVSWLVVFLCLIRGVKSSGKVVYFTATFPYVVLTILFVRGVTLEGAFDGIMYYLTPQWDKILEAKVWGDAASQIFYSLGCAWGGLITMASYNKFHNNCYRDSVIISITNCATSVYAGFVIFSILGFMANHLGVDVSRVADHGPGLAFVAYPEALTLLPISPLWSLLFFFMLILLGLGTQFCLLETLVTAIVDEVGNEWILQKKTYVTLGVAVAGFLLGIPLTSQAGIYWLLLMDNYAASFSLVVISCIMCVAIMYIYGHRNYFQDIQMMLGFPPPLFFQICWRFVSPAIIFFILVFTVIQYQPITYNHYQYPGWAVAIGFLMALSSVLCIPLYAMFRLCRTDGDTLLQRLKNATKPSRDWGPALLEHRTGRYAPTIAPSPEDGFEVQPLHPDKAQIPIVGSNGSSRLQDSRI
Description: Cells were harvested by trypsinisation one day prior to the assay and were seeded in the above mentioned medium. Immediately prior to the assay, the medium was replaced by uptake buffer containing 150 mM NaCl, 1 mM CaCl2, 2.5 mM KCl, 2.5 mM MgCl2, 10 mM Glucose and 10 mM N-2-hydroxyethylpiperazine-N'-2-ethanesulfonic acid ("Hepes" buffer). […] Louis, USA) were used as known inhibitors of GlyT1. […] Data is shown as mean ± s.e.m., where the IC50 is stated as µM for pure compounds and as µg/mLfor extracts.

[4] = system: GluR1; assay: Hippocampal slice cultures, immunohistochemistry of synaptic marker GluR1; format: cell-based, Wistar rats; conditions: relative activation vs sister cultures treated with buffer; 15 min treatment after 48 h in culture
Description: Seven-day-old Wistar rats were decapitated using a guillotine. […] Transversal hippocampal slices (400 µm) were prepared using a vibrating blade microtome (VT1200S; Leica Microsystems (Schweiz) AG, Heerbrugg, Switzerland) in the same buffer. Hippocampal slices were individually placed on a membrane insert (Millicell Culture Plate Inserts, 0.4 µm) and cultivated at 35 °C, 5% CO2, 95% humidity in a medium containing a 1:1 mixture of BME and MEM (both from Invitrogen) containing 25% heat-inactivated horse serum, 1x GlutaMAX, 1x Penicillin/Streptomycin, 0.6% glucose and 1mM Kynurenic acid (Stoppini, Buchs and Muller (1991), J. Neurosci. Methods, 37(2), 173-82). After 48 h in culture, synaptic NMDA receptors were activated by addition of black pepper extract or its constituents for 15 min in 140 mM NaCl, 5 mM KCl, 1.3 mM CaCl2, 25 mM HEPES (pH 7.3), 33 mM D-glucose and 0.02 mM bicuculline methiodide. […] After the treatments, sections were washed and fixed for immunohistochemistry. Markers of enhanced synaptic activity, normally associated with long-term potentiation, representing an ex vivo model of learning and memory were quantitated (see Table 2, below). Table 2. […] The activation of any of these markers (or a combination thereof) is observed in classical LTP experiments.

[5] = pure compounds, CHO cells expressing GlyT1, 60 nM [3H] glycine, 30 minutes at room temperature

| Structure (SMILES) | pCREB [1] | pMAPK [2] | IC50 ([3]; read-out: IC50 for tritiated glycine uptake, pure compounds, CHO cells expressing GlyT1, 60 nM [3H] glycine, 30 minutes at room temperature) | IC50 [3] | GluR1 [4] | IC50 for tritiated glycine uptake [3, 5] |
| --- | --- | --- | --- | --- | --- | --- |
| NCC(=O)O [Glycine, reference compound] | ++ | ++ | – | – | – | – |
| CN(CC[C@@H](Oc1ccc(C(F)(F)F)cc1)c1ccccc1)CC(=O)O [ORG24598, reference compound] | – | – | 0.02 µM | – | – | – |
| O=C(/C=C/C=C/c1ccc2c(c1)OCO2)N1CCCCC1 [Piperine] | ± | ± | – | 48.7 µM | 119-1742% | – |
| COc1cc(/C=C/C(=O)N2CCC=CC2=O)cc(OC)c1OC [Piperlongumine] | ± | ± | – | – | 412-931% | inactive |
| CC(C)CNC(=O)/C=C/C=C/c1ccc2c(c1)OCO2 [Piperlonguminine] | – | – | – | – | – | inactive |
| CNCC(=O)O [Sarcosine, reference compound] | ± | ± | – | – | – | – |
